According to patent EP4818176A1, “TETRACYCLIC DERIVATIVE INHIBITOR, AND PREPARATION METHOD AND USE THEREFOR” (Shanghai Hansoh Biomedical Co., Ltd., priority 2023, dated 2025):
Read-outs that look alike come from different tables or passages of the source.

Tests used:
[1] = target: T1, PRMT5/MEP50-MTA protein complex (Homo sapiens, UniProt O14744); assay: Thermal shift assay: thermal stability (melting temperature) of PRMT5/MEP50-MTA protein complex; assay type: binding; settings: final compound concentration 8 µM; 2 µM PRMT5/MEP50, 2 µM MTA; Tm minus Tm of DMSO vehicle control
T1 construct: purchased Viva Biotech
Description: Test Example 1: Determination of the ability of the compounds of the present invention to improve the thermal stability (melting temperature) of the PRMT5/MEP50-MTA protein complex.
1 Experimental objective: The objective of this test example is to determine the ability of the compound to improve the thermal stability of the PRMT5/MEP50-MTA protein complex, resulting in an increase in the protein melting temperature. 2 Experimental instruments: Quantitative PCR instrument (Quantstudio6 Flex) was purchased from Life Technologies; pipettes were purchased from Eppendorf or Rainin. 3 Experimental reagents and consumables: PRMT5/MEP50 protein was prepared by Viva Biotech; HEPES was purchased from Thermo Fisher Scientific (Cat. No. 15630080); DTT was purchased from Sigma (Cat. No. 43816-10ml); sodium chloride was purchased from Invitrogen (Cat. No. AM9760G); Protein Thermal Shift™ Dye Kit was purchased from Thermo Fisher Scientific (Cat. No. 4461146); methylthioadenosine (MTA) was purchased from Sigma (Cat. No. D5011). 4 Experimental method: In this experiment, the thermal shift method was used to measure the change in the melting temperature (Tm) of the PRMT5/MEP50-MTA protein complex before and after compound binding, thereby characterising the ability of the compound to improve the thermal stability of the PRMT5/MEP50-MTA protein complex. A solution containing 50 mM HEPES, 10 mM DTT, 2 µM MTA, SYPRO Orange and 250 mM NaCl was prepared as the experimental buffer. Human PRMT5/MEP50 protein was added to a final concentration of 2 µM, and the mixture was incubated at room temperature for 30 minutes. The above reaction mixture was aliquoted into 8-strip PCR tubes at 19.5 µL per tube. Then 0.5 µL of test compound or DMSO was added to each tube, providing a total reaction volume of 20 µL and a final compound concentration of 8 µM. 2.5% DMSO was set as the vehicle control. After incubation at room temperature for 10 minutes, the PCR tubes were placed in a PCR instrument, and the melt curve function was selected to measure the melting temperature of the PRMT5/MEP50-MTA protein complex in different treatment groups (heated from 25°C to 95°C, 0.03°C/s). 5 Experimental data processing method: The experimental data files from the PCR instrument were imported into the thermal shift software to obtain the melting temperature (Tm) for each treatment group.

HCT116 wild-type cells = assay: Cell proliferation inhibition (CellTiter-Glo), HCT116 wild-type cells; assay type: cell-based
Description: (§1) Test Example 2: Determination of the inhibitory effect of the compounds of the present invention on the proliferation activity of HCT116 and MTAP Knockout HCT116 cells.
(§2) 1 Experimental objective: The objective of this test example is to determine the inhibitory effect of the compound on the proliferation activity of HCT116 wild-type and HCT116 MTAP knockout cells. 2 Experimental instruments: Centrifuge (Eppendorf 5810R); microplate reader (BioTek Synergy H1 or PerkinElmer Envision); pipette (Eppendorf or Rainin). 3 Experimental reagents: HCT116 and MTAP Knockout HCT116 cells were purchased from Nanjing Cobioer; Cell Titer-Glo was purchased from Promega (Cat. No. G7573); McCoy'5A was purchased from Gibco (Cat. No. 12330031); FBS was purchased from Gibco (Cat. No. 10091148); PBS was purchased from Gibco (Cat. No. 10010023); trypsin was purchased from Gibco (Cat. No. 25200056); cell culture plates were purchased from Corning (Cat. No. 3610). 4 Experimental method: HCT116 and MTAP Knockout HCT116 cells were cultured in McCoy'5A medium containing 10% FBS until an appropriate cell density was reached. The cells were then collected and adjusted to a suitable concentration using complete medium. The cell suspension was seeded into a 96-well plate at 90 µL per well and allowed to adhere overnight in a 37°C, 5% CO2 incubator. Compound solutions of various concentrations were prepared using DMSO and culture medium, with a vehicle control set. The compound solutions were added to the 96-well plate at 10 µL per well, and the plate was incubated in a 37°C, 5% CO2 incubator for an additional 72-240 hours. After incubation, CellTiter-Glo solution was added, and the mixture was mixed uniformly by shaking, followed by incubation in the dark for 10 to 30 minutes. Luminescence was measured using a Synergy H1 or Envision microplate reader. 5 Experimental data processing method: The inhibition rate was calculated using the luminescence signal values, and the concentrations along with the inhibition rates were subjected to non-linear regression curve fitting using Graphpad Prism software to obtain the IC50 values.

[2] = test system: MTAP Knockout HCT116 cells; assay: Cell proliferation inhibition (CellTiter-Glo), HCT116 MTAP knockout cells; assay type: cell-based; settings: for Selectivity: HCT116 IC50 versus MTAP Knockout HCT116 IC50
Description: as §1, §2

[3] = Pharmacokinetics in rats (plasma) after oral administration; assay type: in vivo; settings: SD rats, p.o. 5 mg/kg; for MRT inf: read-out: MRT0-∞
Description: Test Example 4: Determination of the pharmacokinetics of the compounds of the present invention in rats (plasma) after oral administration.
1 Study objective: SD rats were used as test animals to study the pharmacokinetic behaviour of the following example compounds in rats (plasma) after oral administration at a dose of 5 mg/kg. 2 Test scheme • 2.1 Test drugs: Vehicle formula: 0.5% CMC-Na (1% Tween 80); the examples of the present invention, made in house. • 2.2 Test animals: 3 SD rats per group, male, purchased from Shanghai Bikai Keyi Biotechnology Co., Ltd., with animal license number (SCXK (Shanghai) 2018-0006, No.20180006037467). • 2.3 Administration: 3 SD rats per group, male, were fasted overnight and then respectively administered PO at a dose of 5 mg/kg and a volume of 10 mL/kg. • 2.4 Sample collection: 0.2 mL of blood was collected from the jugular vein of rats before administration and at 0, 0.25, 0.5, 1, 2, 4, 6, 8 and 24 h after administration, and placed in EDTA-K2test tubes, and the test tubes were centrifuged at 6,000 rpm at 4°C for 6 min to separate the plasma, which was stored at -80°C. The animals were fed 4 h after administration. • 2.5 Sample treatment • 1) 160 uL of acetonitrile was added to 40 uL of plasma sample for precipitation, and after mixing, the mixture was centrifuged at 3,500 × g for 5-20 minutes. • 2) 100 uL of the treated supernatant solution was taken for LC/MS/MS analysis to determine the concentration of the test compounds. • 2.6 Liquid phase analysis • Liquid phase conditions: Shimadzu LC-20AD pump;mass spectrometry conditions: AB Sciex API 4000 mass spectrometer • Chromatographic column: Phenomenex Gemiu 5 um C18 50 × 4.6 mm • Mobile phase: solution A: 0.1% formic acid in water, solution B: methanol • Flow rate: 1.0 mL/min, elution time: 0-4.0 min, with eluents as follows:
Experimental results and analysis: The main pharmacokinetic parameters were calculated using WinNonlin 8.2.

[4] = Homo sapiens, HCT-116, HCT116 wild-type cells, proliferation inhibition, Cell Titer-Glo, read-out: HCT116 IC50
[5] = Homo sapiens, HCT-116, MTAP Knockout HCT116 cells, proliferation inhibition, Cell Titer-Glo, read-out: MTAP Knockout HCT116 IC50
[6] = rat, in vivo, po, read-out: Cmax
[7] = rat, in vivo, po, read-out: tmax
[8] = Homo sapiens, HCT-116, read-out: HCT116 IC50
[9] = Homo sapiens, HCT-116, read-out: MTAP Knockout HCT116 IC50
[10] = HCT116 wild-type cells, proliferation inhibition, Cell Titer-Glo, read-out: HCT116 IC50
[11] = MTAP Knockout HCT116 cells, proliferation inhibition, Cell Titer-Glo, read-out: MTAP Knockout HCT116 IC50

T1 sequence (O14744 whole entry): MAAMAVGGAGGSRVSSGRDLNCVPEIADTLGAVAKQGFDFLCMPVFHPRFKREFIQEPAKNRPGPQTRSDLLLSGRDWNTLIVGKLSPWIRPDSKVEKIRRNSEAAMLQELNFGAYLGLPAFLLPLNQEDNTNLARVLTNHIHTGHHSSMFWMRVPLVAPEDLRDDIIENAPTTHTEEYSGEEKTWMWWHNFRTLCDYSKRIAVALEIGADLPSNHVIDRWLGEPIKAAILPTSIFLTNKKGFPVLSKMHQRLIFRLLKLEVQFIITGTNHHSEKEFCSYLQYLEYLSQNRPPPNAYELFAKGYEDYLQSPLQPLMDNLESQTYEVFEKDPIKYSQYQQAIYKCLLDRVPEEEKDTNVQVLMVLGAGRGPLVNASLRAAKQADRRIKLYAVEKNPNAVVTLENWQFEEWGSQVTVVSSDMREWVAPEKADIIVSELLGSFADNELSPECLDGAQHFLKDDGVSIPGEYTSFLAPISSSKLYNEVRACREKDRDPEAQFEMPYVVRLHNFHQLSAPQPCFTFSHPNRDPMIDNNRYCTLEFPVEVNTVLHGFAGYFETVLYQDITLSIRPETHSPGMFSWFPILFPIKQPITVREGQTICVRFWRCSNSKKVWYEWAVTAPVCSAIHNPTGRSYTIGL
T1 sequence (Q9BQA1 whole entry partner): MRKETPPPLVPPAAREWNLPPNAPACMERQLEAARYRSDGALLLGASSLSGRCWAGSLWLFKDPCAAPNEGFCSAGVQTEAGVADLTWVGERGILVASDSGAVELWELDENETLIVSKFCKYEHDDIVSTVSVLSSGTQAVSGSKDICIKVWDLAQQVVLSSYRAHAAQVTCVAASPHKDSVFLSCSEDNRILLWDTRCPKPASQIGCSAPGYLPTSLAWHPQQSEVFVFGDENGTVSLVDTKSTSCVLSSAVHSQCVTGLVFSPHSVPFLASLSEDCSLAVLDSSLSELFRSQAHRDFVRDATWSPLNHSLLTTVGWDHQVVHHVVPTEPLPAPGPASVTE

## Nc1nc2cc3c(cc2n2cncc12)C(=O)N(Cc1ccc(C(F)(F)F)cn1)CC/C=C\3 [Example 416, (Z)-4-Amino-11-(5-(trifluoromethyl)pyridin-2-yl)methyl-10,11-dihydroazocino[4,3-g]imidazo[1,5-a]quinoxalin-12(9H)-one]
[1]
  ΔTm at 8 µM: 12.4 °C
HCT116 wild-type cells; [4]
  IC50: 222 nM
[2]
  Selectivity: 93
[2]; [5]
  IC50: 2.4 nM
[3]; male, rat, po
  AUC(0-inf): 1520 ng·h/mL
  half-life: 1.3 h
  MRT inf: 2.9 h
[3]; male, rat, po, read-out: Cmax
  Cmax: 395 ng/mL
[3]; male, rat, po, read-out: tmax
  Tmax: 2 h

## Nc1nc2cc3c(cc2n2cncc12)C(=O)N(C1COc2cc(C(F)(F)F)ccc21)CCC/C=C\3 (racemic) [Example 164, (Z)-4-Amino-12-(6-(trifluoromethyl)-2,3-dihydrobenzofuran-3-yl)-9,10,11,12-tetrahydro-13H-azo[4,3-g]imidazo[1,5-a]quinoxalin-13-one]
[1]
  ΔTm at 8 µM: 11.2 °C
HCT116 wild-type cells; [4]
  IC50: 6630 nM
[2]
  Selectivity: 406
[2]; [5]
  IC50: 16 nM
[3]; rat, in vivo, po
  AUC(0-inf): 2520 ng·h/mL
  half-life: 4.7 h
  MRT inf: 7.6 h
[3]; [6]
  Cmax: 183 ng/mL
[3]; [7]
  Tmax: 4 h

## C[C@H]1OCc2c1c(N)nc1cc3c(cc21)C(=O)N(Cc1ccc(S(F)(F)(F)(F)F)cn1)CCCOC3 [Example 437-P1, (R)-4-Amino-3-methyl-12-((5-(pentafluorosulphanyl)pyridin-2-yl)methyl)-3,7,9,10,11,12-hexahydrofuro[3,4-c][1,5]oxazolo[7,8-g]quinolin-13(1H)-one]
[1]
  ΔTm at 8 µM: 12.6 °C
HCT116 wild-type cells; [8]
  IC50: 187 nM
[2]
  Selectivity: 85
[2]; [9]
  IC50: 2.2 nM
[3]; rat, in vivo, po
  AUC(0-inf): 2050 ng·h/mL
  half-life: 2.4 h
  MRT inf: 3.7 h
[3]; [6]
  Cmax: 318 ng/mL
[3]; [7]
  Tmax: 2 h

## Nc1nc2cc3c(cc2c2c1COC2)C(=O)N(Cc1ccc(S(F)(F)(F)(F)F)cn1)CCCOC3 [Example 434, 4-Amino-3-methyl-12-((5-(pentafluorosulphanyl)pyridin-2-yl)methyl)-3,7,9,10,11,12-hexahydrofuro[3,4-c][1,5]oxazolo[7,8-g]quinolin-13(1H)-one]
[1]
  ΔTm at 8 µM: 12.2 °C
HCT116 wild-type cells; [8]
  IC50: 578 nM
[2]
  Selectivity: 87
[2]; [9]
  IC50: 6.7 nM
[3]; rat, po
  AUC(0-inf): 2330 ng·h/mL
  half-life: 3.1 h
  MRT inf: 5.3 h
[3]; rat, po, read-out: Cmax
  Cmax: 273 ng/mL
[3]; rat, po, read-out: tmax
  Tmax: 2 h

## Nc1nc2cc3c(cc2c2c1COC2)C(=O)N(C1COCc2nc(C(F)(F)F)ccc21)CCC/C=C\3 (single isomer, unassigned) [Example 165-P1]
[1]
  ΔTm at 8 µM: 11.9 °C
HCT116 wild-type cells; [4]
  IC50: 682 nM
[2]
  Selectivity: 132
[2]; [5]
  IC50: 5.2 nM
[3]; male, rat, po
  AUC(0-inf): 999 ng·h/mL
  half-life: 1.5 h
  MRT inf: 2.5 h
[3]; male, rat, po, read-out: Cmax
  Cmax: 321 ng/mL
[3]; male, rat, po, read-out: tmax
  Tmax: 1 h

## (Z)-4-Amino-12-((5-(trifluoromethyl)pyridin-2-yl)methyl)-9,10,11,12-tetrahydro-13H-azonino[4,3-g]imidazo[1,5-a]quinoxalin-13-one [Example 171]
[1]
  ΔTm (°C): 12.03 °C
HCT116 wild-type cells; [10]
  IC50: 236 nM
[2]
  Selectivity: 90
[2]; [11]
  IC50: 2.6 nM
[3]
  AUC 0-∞: 1058 ng·h/mL
  Cmax: 283 ng/mL
  MRT0-∞: 2.9 h
  Tmax: 1.0 h
  t1/2: 1.6 h

## Nc1nc2cc3c(cc2c2c1COC2)C(=O)N(Cc1ccc(C(F)(F)F)cn1)CC/C=C\3 [Example 638, (Z)-4-Amino-11-((5-(trifluoromethyl)pyridin-2-yl)methyl)-3,9,10,11-tetrahydronaphthyrido[3,4-g]furo[3,4-e]quinoxalin-12(1H)-one]
[1]
  ΔTm at 8 µM: 12.3 °C
HCT116 wild-type cells; [8]
  IC50: 318 nM
[2]
  Selectivity: 71
[2]; [9]
  IC50: 4.5 nM
[3]; rat, po
  AUC(0-inf): 929 ng·h/mL
  half-life: 1.8 h
  MRT inf: 3.5 h
[3]; rat, po, read-out: Cmax
  Cmax: 241 ng/mL
[3]; rat, po, read-out: tmax
  Tmax: 1.7 h

## CC(c1ccc(C(F)(F)F)cn1)N1CC/C=C\c2cc3nc(N)c4cncn4c3cc2C1=O (single isomer, unassigned) [Example 313-P1]
[1]
  ΔTm at 8 µM: 11.1 °C
HCT116 wild-type cells; [4]
  IC50: 1020 nM
[2]
  Selectivity: 59
[2]; [5]
  IC50: 17 nM

## (R, Z)-4-amino-12-(2-(trifluoromethyl)-5,8-dihydro-6H-pyrano[3,4-b]pyridin-5-yl)-9,10,11,12-tetrahydro-13H-aza[4,3-g]imidazo[1,5-a]quinoxalin-13-one [Example 158-P1]
[1]
  ΔTm (°C): 12.03 °C
HCT116 wild-type cells; [10]
  IC50: 708 nM
[2]
  Selectivity: 81
[2]; [11]
  IC50: 8.7 nM

## Nc1nc2cc3c(cc2n2cncc12)C(=O)N(Cc1ccc(S(F)(F)(F)(F)F)cc1)CCCOC3 [Example 214, 4-Amino-12-(4-(pentafluoro-λ^6-sulphanyl)benzyl)-9,10,11,12-tetrahydroimidazo[1,5-a][1,5]oxazonino[8,7-g]quinoxalin-13(7H)-one]
[1]
  ΔTm at 8 µM: 12.3 °C
HCT116 wild-type cells; [4]
  IC50: 106 nM
[2]
  Selectivity: 20
[2]; [5]
  IC50: 5.3 nM

## Nc1nc2cc3c(cc2n2cncc12)C(=O)N(Cc1ccc(S(F)(F)(F)(F)F)cn1)CCCOC3 [Example 414, 4-Amino-12-((5-(pentafluoro-λ^6-sulphanyl)pyridin-2-yl)methyl)-9,10,11,12-tetrahydroimidazo[1,5-a][1,5]oxazonino[8,7-g]quinoxalin-13(7H)-one]
[1]
  ΔTm at 8 µM: 12.3 °C
HCT116 wild-type cells; [4]
  IC50: 229 nM
[2]
  Selectivity: 47
[2]; [5]
  IC50: 4.9 nM
[3]; male, rat, po
  AUC(0-inf): 949 ng·h/mL
  half-life: 1.3 h
  MRT inf: 3.3 h
[3]; male, rat, po, read-out: Cmax
  Cmax: 208 ng/mL
[3]; male, rat, po, read-out: tmax
  Tmax: 2 h
